Numbered stars: 1 amine (or outer) side, 2 acyl side, 3 side chain; on linkers, the order of the positions; unused ones are H or OH. Bridge positions count the residues as written; N and C are the ends. Square brackets hold non-standard residues; d marks the D form. Peptide text beside a SMILES is read from it. * marks the point of attachment. ξ: configuration not given here. X2 = CC(C)C[C@H](N[*:1])C(=O)C[C@H](C(=O)[*:2])C(C)C; Phe(4-COOH) = N[C@@H](Cc1ccc(C(=O)O)cc1)C(=O)O; Bip = N[C@@H](Cc1ccc(-c2ccccc2)cc1)C(=O)O; Phe(3-Me) = Cc1cccc(C[C@H](N)C(=O)O)c1; γGlu = O=C(O)[C@H](CCC(=O)[*:2])N[*:1]; Bta = N[C@@H](Cc1csc2ccccc12)C(=O)O; hArg = N=C(N)NCCCC[C@H](N)C(=O)O; 4Pal = N[C@@H](Cc1ccncc1)C(=O)O; Cha = N[C@@H](CC1CCCCC1)C(=O)O; Ile(3ξ) = CCC(C)[C@H](N)C(=O)O; aThr = C[C@H](O)[C@H](N)C(=O)O; 12Ado = NCCCCCCCCCCCC(=O)O; dOrn = NCCC[C@@H](N)C(=O)O; dDab = NCC[C@@H](N)C(=O)O; Carboxymethyl = O=C(O)C*; Orn = NCCC[C@H](N)C(=O)O; Aun = NCCCCCCCCCCC(=O)O; Dab = NCC[C@H](N)C(=O)O; AEEA = NCCOCCOCC(=O)O
Each molecule was assayed against T1, PD-1/PD-L1 interaction (PE-labeled human PD-L1-Ig binding to Jurkat cell line over-expressing human PD-1) (Homo sapiens, UniProt Q15116) (assay: Jurkat-PD-1 Cell Binding High-Content Screening Assay (CBA)). Settings: Jurkat cell line over-expressing human PD-1; PE-labeled PD-L1-Ig 20 nM final; read-out: Jurkat hPD1-PDL1 IC50.
T1 construct: expressed in transfected cells; host or cells: Jurkat
T1 sequence (Q15116 25-288): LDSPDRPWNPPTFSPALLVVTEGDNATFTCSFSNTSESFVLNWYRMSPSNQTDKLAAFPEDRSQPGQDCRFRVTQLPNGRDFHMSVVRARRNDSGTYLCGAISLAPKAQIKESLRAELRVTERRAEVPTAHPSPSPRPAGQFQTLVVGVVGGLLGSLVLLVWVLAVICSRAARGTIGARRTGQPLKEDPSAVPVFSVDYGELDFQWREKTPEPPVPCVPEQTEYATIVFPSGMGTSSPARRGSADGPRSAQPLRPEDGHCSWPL
Assay type: cell-based
Outline: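 Binding of fluorescent PD-L1-Ig (phycoerythrin on Ig tag, 20 nM final, 1 h) measured by high-content imaging of fixed, Hoechst-counterstained Jurkat-hPD-1 cells. Compound added 2 h at 37° C beforehand, in DMEM with 10% fetal calf serum.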

In order of falling IC50:
1. CC(C)C[C@H]1NC(=O)[C@H](CCCN)NC(=O)[C@H](C(C)C)NC(=O)[C@H](Cc2ccc(-c3ccccc3)cc2)NC(=O)[C@H](C(C)C)NC(=O)[C@H](Cc2csc3ccccc23)NC(=O)[C@H](CC(=O)O)NC(=O)[C@H](Cc2ccc(OCC(=O)O)cc2)NC(=O)[C@H](CCCCNC(=N)N)NC(=O)CSC[C@@H](C(=O)N[C@@H](CCCN)C(=O)NCCCCCCCCCCC(=O)O)NC(=O)[C@H](CO)NC(=O)[C@H](C(C)C)NC(=O)[C@H](CC2CCCCC2)NC(=O)[C@H](CCN)NC1=O [Compound 3067] ({CH2CO}-[hArg]Y(Carboxymethyl)D[Bta]V[Bip]V[Orn][dL][Dab][Cha]VSC[Orn][Aun]-OH; thioether N-14)  41 nM
2. CC(C)C[C@H]1NC(=O)[C@H](CCCN)NC(=O)[C@H](C(C)C)NC(=O)[C@H](Cc2ccc(-c3ccccc3)cc2)NC(=O)[C@H](C(C)C)NC(=O)[C@H](Cc2c[nH]c3ccccc23)NC(=O)[C@H](CC(=O)O)NC(=O)[C@H](Cc2ccc(C(=O)O)cc2)NC(=O)[C@H](Cc2ccc(OCC(=O)O)cc2)NC(=O)CSC[C@@H](C(=O)N[C@H](CO)C(=O)NCCOCCOCC(=O)N[C@@H](CCCN)C(=O)NCCCCCCCCCCCC(=O)O)NC(=O)[C@H](CO)NC(=O)[C@H](C(C)C)NC(=O)[C@H](CC2CCCCC2)NC(=O)[C@H](CCN)NC1=O [Compound 3064] ({CH2CO}-Y(Carboxymethyl)[Phe(4-COOH)]DWV[Bip]V[Orn][dL][Dab][Cha]VSC[dS][AEEA][Orn][12Ado]-OH; thioether N-14)  32.1 nM
3. CCC(C)[C@@H]1NC(=O)[C@H](Cc2ccc(-c3ccccc3)cc2)NC(=O)[C@H](C(C)C)NC(=O)[C@H](Cc2c[nH]c3ccccc23)NC(=O)[C@H](CC(=O)O)NC(=O)[C@H](Cc2ccc(OCC(=O)O)cc2)NC(=O)[C@H]([C@H](C)O)NC(=O)CSC[C@@H](C(=O)NCCOCCOCC(=O)N[C@@H](CCCCN)C(=O)NCCCCCCCCCCC(=O)O)NC(=O)[C@H](CO)NC(=O)[C@H](C(C)C)NC(=O)[C@H](CC(C)C)NC(=O)[C@H](CCN)NC(=O)[C@@H](CC(C)C)NC(=O)[C@H](CCCN)NC1=O (stereo partly drawn) [Compound 3083] ({CH2CO}-[aThr]Y(Carboxymethyl)DWV[Bip][Ile(3ξ)][Orn][dL][Dab]LVSC[AEEA]K[Aun]-OH; thioether N-14)  26.2 nM
4. CCC(C)[C@@H]1NC(=O)[C@H](Cc2ccc(-c3ccccc3)cc2)NC(=O)[C@H](CC(C)C)NC(=O)[C@H](Cc2c[nH]c3ccccc23)NC(=O)[C@H](CC(=O)O)NC(=O)[C@H](Cc2ccc(OCC(=O)O)cc2)NC(=O)[C@H]([C@H](C)O)NC(=O)CSC[C@@H](C(=O)NCCOCCOCC(=O)N[C@@H](CCCCN)C(=O)NCCCCCCCCCCC(=O)O)NC(=O)[C@H](CO)NC(=O)[C@H](C(C)C)NC(=O)[C@H](CC(C)C)NC(=O)[C@H](CCN)NC(=O)[C@@H](CC(C)C)NC(=O)[C@H](CCCN)NC1=O (stereo partly drawn) [Compound 3081] ({CH2CO}-[aThr]Y(Carboxymethyl)DWL[Bip][Ile(3ξ)][Orn][dL][Dab]LVSC[AEEA]K[Aun]-OH; thioether N-14)  20.7 nM
5. CC(C)C[C@H]1NC(=O)[C@H](CCCN)NC(=O)[C@H](C(C)C)NC(=O)[C@H](Cc2ccc(-c3ccccc3)cc2)NC(=O)[C@H](C(C)C)NC(=O)[C@H](Cc2csc3ccccc23)NC(=O)[C@H](CC(=O)O)NC(=O)[C@H](Cc2ccc(OCC(=O)O)cc2)NC(=O)[C@H](CCCCNC(=N)N)NC(=O)CSC[C@@H](C(=O)NCC(=O)NCCOCCOCC(=O)N[C@H](CCCN)C(=O)NCCCCCCCCCCC(=O)O)NC(=O)[C@H](CO)NC(=O)[C@H](C(C)C)NC(=O)[C@H](CC2CCCCC2)NC(=O)[C@H](CCN)NC1=O [Compound 3065] ({CH2CO}-[hArg]Y(Carboxymethyl)D[Bta]V[Bip]V[Orn][dL][Dab][Cha]VSCG[AEEA][dOrn][Aun]-OH; thioether N-14)  19.2 nM
6. CC(C)C[C@@H]1NC(=O)[C@H](CCN)NC(=O)[C@@H](CC(C)C)NC(=O)[C@H](CCCN)NC(=O)[C@H](C(C)C)NC(=O)[C@H](Cc2ccc(-c3ccccc3)cc2)NC(=O)[C@H](CC(C)C)NC(=O)[C@H](Cc2c[nH]c3ccccc23)NC(=O)[C@H](CC(=O)O)NC(=O)[C@H](Cc2ccc(OCC(=O)O)cc2)NC(=O)[C@H](Cc2ccc(OCC(=O)O)cc2)NC(=O)CSC[C@@H](C(=O)N[C@H](CCN)C(=O)NCCOCCOCC(=O)NCCCCCCCCCCC(=O)O)NC(=O)[C@H](CO)NC(=O)[C@H](C(C)C)CC1=O [Compound 3071] ({CH2CO}-Y(Carboxymethyl)Y(Carboxymethyl)DWL[Bip]V[Orn][dL][Dab][X2]SC[dDab][AEEA][Aun]-OH; thioether N-13)  17.2 nM
7. CC(C)C[C@@H]1NC(=O)[C@H](CCN)NC(=O)[C@@H](CC(C)C)NC(=O)[C@H](CCN)NC(=O)[C@H](C(C)C)NC(=O)[C@H](Cc2ccc(-c3ccccc3)cc2)NC(=O)[C@H](CC(C)C)NC(=O)[C@H](Cc2c[nH]c3ccccc23)NC(=O)[C@H](CC(=O)O)NC(=O)[C@H](Cc2ccc(OCC(=O)O)cc2)NC(=O)[C@H](Cc2ccc(OCC(=O)O)cc2)NC(=O)CSC[C@@H](C(=O)N[C@H](CCCN)C(=O)NCCOCCOCC(=O)NCCCCCCCCCCC(=O)O)NC(=O)[C@H](CO)NC(=O)[C@H](C(C)C)CC1=O [Compound 3073] ({CH2CO}-Y(Carboxymethyl)Y(Carboxymethyl)DWL[Bip]V[Dab][dL][Dab][X2]SC[dOrn][AEEA][Aun]-OH; thioether N-13)  17.2 nM
8. CC(C)C[C@H]1NC(=O)[C@H](CCCN)NC(=O)[C@H](C(C)C)NC(=O)[C@H](Cc2ccc(-c3ccccc3)cc2)NC(=O)[C@H](C(C)C)NC(=O)[C@H](Cc2csc3ccccc23)NC(=O)[C@H](CC(=O)O)NC(=O)[C@H](Cc2ccc(OCC(=O)O)cc2)NC(=O)[C@H](CCCCNC(=N)N)NC(=O)CSC[C@@H](C(=O)NCCOCCOCC(=O)N[C@@H](CCCN)C(=O)NCCCCCCCCCCC(=O)O)NC(=O)[C@H](CO)NC(=O)[C@H](C(C)C)NC(=O)[C@H](CC2CCCCC2)NC(=O)[C@H](CCN)NC1=O [Compound 3066] ({CH2CO}-[hArg]Y(Carboxymethyl)D[Bta]V[Bip]V[Orn][dL][Dab][Cha]VSC[AEEA][Orn][Aun]-OH; thioether N-14)  17.1 nM
9. CC(C)C[C@@H]1NC(=O)[C@H](CCN)NC(=O)[C@@H](CC(C)C)NC(=O)[C@H](CCCN)NC(=O)[C@H](C(C)C)NC(=O)[C@H](Cc2ccc(-c3ccccc3)cc2)NC(=O)[C@H](CC(C)C)NC(=O)[C@H](Cc2c[nH]c3ccccc23)NC(=O)[C@H](CC(=O)O)NC(=O)[C@H](Cc2ccncc2)NC(=O)[C@H](Cc2ccc(OCC(=O)O)cc2)NC(=O)CSC[C@@H](C(=O)N[C@H](CCN)C(=O)NCCOCCOCC(=O)NCCCCCCCCCCC(=O)O)NC(=O)[C@H](CO)NC(=O)[C@H](C(C)C)CC1=O [Compound 3072] ({CH2CO}-Y(Carboxymethyl)[4Pal]DWL[Bip]V[Orn][dL][Dab][X2]SC[dDab][AEEA][Aun]-OH; thioether N-13)  13.5 nM
10. CC(C)C[C@H]1NC(=O)[C@H](CCCN)NC(=O)[C@H](CCC(=O)O)NC(=O)[C@H](Cc2ccc(-c3ccccc3)cc2)NC(=O)[C@H](C(C)C)NC(=O)[C@H](Cc2c[nH]c3ccccc23)NC(=O)[C@H](CC(=O)O)NC(=O)[C@H](Cc2ccc(C(=O)O)cc2)NC(=O)[C@H](Cc2ccc(OCC(=O)O)cc2)NC(=O)CSC[C@@H](C(=O)N[C@H](CO)C(=O)NCCOCCOCC(=O)N[C@@H](CCCN)C(=O)NCCCCCCCCCCCC(=O)O)NC(=O)[C@H](CO)NC(=O)[C@H](C(C)C)NC(=O)[C@H](CC2CCCCC2)NC(=O)[C@H](CCN)NC1=O [Compound 3063] ({CH2CO}-Y(Carboxymethyl)[Phe(4-COOH)]DWV[Bip]E[Orn][dL][Dab][Cha]VSC[dS][AEEA][Orn][12Ado]-OH; thioether N-14)  13.4 nM
11. CCC(C)[C@@H]1NC(=O)[C@H](Cc2ccc(-c3ccccc3)cc2)NC(=O)[C@H](CC(C)C)NC(=O)[C@H](Cc2cccc(C)c2)NC(=O)[C@H](CC(=O)O)NC(=O)[C@H](Cc2ccc(OCC(=O)O)cc2)NC(=O)[C@H](Cc2ccc(OCC(=O)O)cc2)NC(=O)CSC[C@@H](C(=O)NCCOCCOCC(=O)N[C@@H](CCC(=O)NCCCCCCCCCCC(=O)O)C(=O)O)NC(=O)[C@H](CO)NC(=O)[C@H](C(C)C)NC(=O)[C@H](CC(C)C)NC(=O)[C@H](CCN)NC(=O)[C@@H](CC(C)C)NC(=O)[C@H](CCCN)NC1=O (stereo partly drawn) [Compound 3085] ({CH2CO}-Y(Carboxymethyl)Y(Carboxymethyl)D[Phe(3-Me)]L[Bip][Ile(3ξ)][Orn][dL][Dab]LVSC[AEEA][γGlu][Aun]-OH; thioether N-14)  12 nM
12. CCC(C)[C@@H]1NC(=O)[C@H](Cc2ccc(-c3ccccc3)cc2)NC(=O)[C@H](C(C)C)NC(=O)[C@H](Cc2c[nH]c3ccccc23)NC(=O)[C@H](CC(=O)O)NC(=O)[C@H](Cc2ccc(OCC(=O)O)cc2)NC(=O)[C@H](CCCCNC(=N)N)NC(=O)CSC[C@@H](C(=O)NCCOCCOCC(=O)N[C@@H](CCCCN)C(=O)NCCCCCCCCCCC(=O)O)NC(=O)[C@H](CO)NC(=O)[C@H](C(C)C)NC(=O)[C@H](CC2CCCCC2)NC(=O)[C@H](CCN)NC(=O)[C@@H](CC(C)C)NC(=O)[C@H](CCCN)NC1=O (stereo partly drawn) [Compound 3082] ({CH2CO}-[hArg]Y(Carboxymethyl)DWV[Bip][Ile(3ξ)][Orn][dL][Dab][Cha]VSC[AEEA]K[Aun]-OH; thioether N-14)  11.3 nM
13. CC(C)C[C@H]1NC(=O)[C@H](CCCCN)NC(=O)[C@H](C(C)C)NC(=O)[C@H](Cc2ccc(-c3ccccc3)cc2)NC(=O)[C@H](C(C)C)NC(=O)[C@H](Cc2c[nH]c3ccccc23)NC(=O)[C@H](CC(=O)O)NC(=O)[C@H](Cc2ccc(OCC(=O)O)cc2)NC(=O)[C@H](CC(N)=O)NC(=O)CSC[C@@H](C(=O)NCCOCCOCC(=O)N[C@@H](CCCN)C(=O)NCCCCCCCCCCC(=O)O)NC(=O)[C@H](CO)NC(=O)[C@H](C(C)C)NC(=O)[C@H](CC2CCCCC2)NC(=O)[C@H](CCN)NC1=O [Compound 3070] ({CH2CO}-NY(Carboxymethyl)DWV[Bip]VK[dL][Dab][Cha]VSC[AEEA][Orn][Aun]-OH; thioether N-14)  5.1 nM

From patent US20260022142A1, “MACROCYCLIC IMMUNOMODULATORS” (Bristol-Myers Squibb Company, priority 2022, published 2026)
